Test results: BindingDB's records for doi:10.1021/jm0704200

Experiments:
[1] = Antagonist activity at human dopamine D3 receptor expressed in HEK293 cells by mitogenesis assay
[2] = Antagonist activity at human dopamine D2 receptor expressed in HEK293 cells by mitogenesis assay
[3] = Agonist activity at human dopamine D2 receptor expressed in HEK293 cells by mitogenesis assay

IC50 [1] [nM]	IC50 [2] [nM]	EC50 [3] [nM]	Compound
2.2			COc1ccccc1N1CCN(CCCCNC(=O)c2ccc3c(c2)Cc2ccccc2-3)CC1 [N-(4-(4-(2-methoxyphenyl)piperazin-1-yl)butyl)-9H-fluorene-2-carboxamide]
14.3	672	150	O=C(NC[C@H]1C[C@@H]1CN1CCN(c2cccc(Cl)c2Cl)CC1)c1ccc(-c2ccccn2)cc1 [N-(2-(4-(2,3-dichlorophenyl)piperazin-1-ylmethyl)-trans-cyclopropylmethyl)-4-pyridin-2-ylbenzamide]
		92	O=C(NCCCCN1CCN(c2cccc(Cl)c2Cl)CC1)c1ccc(-c2ccccn2)cc1 [N-{4-[4-(2,3-Dichloro-phenyl)-piperazin-1-yl]-butyl}-4-pyridin-2-yl-benzamide]
2.9			COc1ccccc1N1CCN(CCCCNC(=O)c2ccc(-c3ccccn3)cc2)CC1 [N-(4-(4-(2-methoxyphenyl)piperazin-1-yl)butyl)-4-pyridin-2-ylbenzamide]
